No end group written: not given here. *: point of attachment. Biotin = O=C1N[C@H]2[C@H](CS[C@H]2CCCCC(=O)*)N1
Tested on: live cells in suspension or subconfluent monolayers
Assay type: cell-based
Settings: not given

Row | Substance | Concentration (translocation activity of transport peptides) | Concentration (translocation activity), mapping of restrictocin L3 loop | Concentration (translocation activity), optimization of E^rns peptide | Translocation activity (in words)
1 | Biotin-KTIPSNKPKKK-NH2 [MDS-35] | 0.1 µM | – | – | –
2 | Biotin-KLIKGRTPIKFGKADCDRPPKHSGK-NH2 | – | 0.3 µM | – | –
3 | Biotin-KSICKTIPSNKPKKK-NH2 [MDP-21] | 1.0 µM | – | – | –
4 | Biotin-GRQLRRAGRRLRGRSR-NH2 [MDM-25] | – | – | 0.1 µM | –
5 | Biotin-RVRSWLGRQLRIAGKRLEGRSK-NH2 [MDL-9] | – | – | 1.0 µM | –
6 | Biotin-RPRGTRGKGRRIRR-NH2 [HIV-1 tat/tar] | 0.3 µM | – | – | –
7 | Biotin-KRIPNKKPGKKTTTKPTKKPTIKTTKKDLK-NH2 [MDN-13] | 1.0 µM | – | – | –
8 | MAGAININ (GIGKFLHSAGKFGKAFVGEIMKS; also: biotinylated (site not given here)) [reference compound] | – | – | – | did not
9 | Biotin-KRPAAIKKAGQAKKKK-NH2 [Bipartite] | 0.1 µM | – | – | –
10 | Biotin-PKKKRKV-NH2 | 0.1 µM | – | – | –
11 | Biotin-KKPGKKTTTKPTKK-NH2 [MDS-23] | 0.3 µM | – | – | –
12 | Biotin-GRQLRIAGRRLRRRSR-NH2 [MDM-26] | – | – | 0.1 µM | –
13 | Biotin-KRIPNKKPGKKT-NH2 [MDP-32] | 0.03 µM | – | – | –
14 | Biotin-DTRQARRNRRRRWRERQRAAAAR-NH2 [HIV-1 Rev] | 0.1 µM | – | – | –
15 | Biotin-GNGKLIKGRTPIKFGKADCDRPPKHSQNGM-NH2 | – | 3.0 µM | – | –
16 | Biotin-KLIKGRTPIKFGKADCDRPPKHSQNGMGK-NH2 | – | 0.3 µM | – | –
17 | Biotin-RAGLQFPVGRVHRLLRK-NH2 [Antibacterial peptide Buforin, reference compound] | 3.0 µM | – | – | –

Row | Substance | Concentration (translocation activity of transport peptides) | Concentration (translocation activity), mapping of restrictocin L3 loop | Concentration (translocation activity), optimization of E^rns peptide | Translocation activity (in words)
18 | Biotin-DRRRRGSRPSGAERRRRRAAAA-NH2 [RSG-1.2] | 0.1 µM | – | – | –
19 | Biotin-NRTRRNRRRVR-NH2 [Flockhouse virus peptide] | 0.03 µM | – | – | –
20 | Biotin-QTRRRERRAEKQAQW-NH2 [Bacteriophage lambda N peptide] | 1.0 µM | – | – | –
21 | Biotin-KRIPNKKPGKKTTTKPTKKPTIK-NH2 [MDP-08] | 0.3 µM | – | – | –
22 | Biotin-KGRTPIKFGKADCDRPPKHSQNGMGK-NH2 | – | 3.0 µM | – | –
23 | Biotin-KRIPNKKPGKKTTTKPTKK-NH2 [MDP-19] | 0.3 µM | – | – | –
24 | Biotin-GRQLRIAGKRLRGRSK-NH2 [MDR-25] | – | – | 0.3 µM | –
25 | Biotin-RRVTSWLGRQLRIAGKRLEGRSK-NH2 [MDL-8] | – | – | 1.0 µM | –
26 | Biotin-KCPSRRPKR-NH2 [Alpha virus E3] | 3.0 µM | – | – | –
27 | Biotin-KKPGKKTTTKPTKKPTIKTTKK-NH2 [MDS-09] | 0.3 µM | – | – | –
28 | Biotin-KKPTIKTTKK-NH2 [MDS-37] | 0.3 µM | – | – | –
29 | Biotin-GRQLRRAGRRLRRRSR-NH2 [MDM-27] | – | – | 0.1 µM | –
30 | Biotin-KLIKGRTPIKFGKARCRRPPKHSGK-NH2 | – | 0.3 µM | – | –
31 | Biotin-KRIPNKKPGKK-NH2 [MDS-34] | 0.03 µM | – | – | –
32 | Biotin-TRRSKRRSHRKF-NH2 [Herpes virus 8 k8 protein (res 124-135)] | 0.1 µM | – | – | –
33 | Biotin-KRIPNKKPKK [MDS-36] | 0.03 µM | – | – | –
34 | Biotin-KRIPNKKPGKKTTTKPTKKPTIKTTKKDLKPQTTKPK-NH2 [MDN-12] | 1.0 µM | – | – | –

Same assay, conditions: Table 11

Row | Substance | Concentration (translocation activity of transport peptides)
35 | Bioton-KRIPNKKPGKKTTTKPTKKPTIKTTKK-NH2 [MDP-04] | 0.3 µM
